Data published in EPA's ToxValDB 9.5.
“And” between values parts separate entries of the source, which are not always exact repeats. Identical values can stand only once.

Key:
Canidae = conditions: oral, Dog Other
Rattus norvegicus [1] = conditions: oral
Rattus norvegicus [2] = conditions: oral; for LEL / NOEL: duration: 90 days, diet
Rattus norvegicus [3] = conditions: oral; remark: listed apart in the source
Rattus norvegicus [4] = conditions: subchronic, oral, gavage, M/F
Rattus norvegicus [5] = conditions: for LEL: uterotrophic, Active
Rattus norvegicus [6] = conditions: repeat dose other; oral
Rattus norvegicus [7] = conditions: short-term; duration: 20 days; oral; diet; F; musculoskeletal
[8] = chronic, duration: 1 years, diet, M/F, tremors
[9] = chronic, duration: 1 years, diet, M/F, hypertrophy of adrenal cortex (both sexes) hematological effects (males)
[10] = chronic, duration: 26 weeks, diet, M/F, increased organ weight
[11] = subchronic, M/F, reduced hemoglobin concentration, lowered hematocrits, altered organ weight
[12] = subchronic, M, increased sgot and sgpt levels
[13] = chronic, duration: 2 years, diet, M/F, liver and kidney effects, reduced body weight, mortality
[14] = chronic, duration: 1 years, diet, M/F, chronic pneumonitis
[15] = chronic, duration: 106 weeks, diet, M/F, liver and kidney degeneration and bone marrow atrophy
[16] = subchronic, M/F, reduced weight gain, food consumption increased relative liver weight
[17] = duration: 2 years, feed, M/F, Crl:CD(SD), reduced weight gain
[18] = short-term, duration: 20 days, M/F, rachitic bone
[19] = chronic, duration: 6 months, diet, M/F, Organ weight changes (adrenal and kidney)

`CC1(C)C(C(=O)OC(C#N)c2cccc(Oc3ccccc3)c2)C1(C)C` (centres undefined) [Fenpropathrin] was tested, and the LOAEL (Canidae; [8]) was 6.25 mg/kg-day and the NOAEL (Canidae; [8]) was 2.5 mg/kg-day.

`Oc1c(Cl)cc(Cl)c2cccnc12.Oc1c(Cl)ccc2cccnc12.Oc1ccc(Cl)c2cccnc12` [Halquinols] showed an NOAEL (Rattus norvegicus [1]; chronic, duration: 1 years, Histopathological changes in the kidney) of 15 mg/kg-day.

With `C[C@H]1[C@H](c2ccc(Cl)cc2)SC(=O)N1C(=O)NC1CCCCC1` [Hexythiazox] the LEL (Canidae; [9]) was 12.5 mg/kg-day and the NOEL (Canidae; [9]) was 2.5 mg/kg-day.

`CC1(C)CN=C(NN=C(C=Cc2ccc(C(F)(F)F)cc2)C=Cc2ccc(C(F)(F)F)cc2)NC1` [Hydramethylnon] was tested, and the LEL (Canidae; [10]) was 1 mg/kg-day and the NOEL (Canidae; [10]) was 0.33 mg/kg-day.

`CCCN(CCC)c1c([N+](=O)[O-])cc(C(C)C)cc1[N+](=O)[O-]` [Isopropalin] was tested, and the LEL (Rattus norvegicus [2]; [11]) was 72 mg/kg-day, the NOEL (Rattus norvegicus [2]; [11]) was 15 mg/kg-day and the NOEL (Rattus norvegicus [3]; subchronic, duration: 90 days, diet, Blood: Hematological effects + Organs, unspecified: Altered weights) was 15 mg/kg-day.

`C=C(C)C#N` [Methacrylonitrile] showed an NOEL (Rattus norvegicus [4]; Fischer 344, Deaths + Clinical Observation: Lethargy Lacrimation, tremors Convulsions Ataxia Abnormalbreathing + Body Weight Changes: decrease + …) of under 7.5 mg/kg-day, an LOAEL (Canidae; [12]) of 24 mg/m3 and an NOAEL (Canidae; [12]) of 9 mg/m3.

Work on `C=C(C)C(=O)OC` [Methyl methacrylate] yielded an NOAEL (Rattus norvegicus [2]; chronic, drinking water, M/F, no effects) of 136 mg/kg-day and an NOEL (Rattus norvegicus [3]; chronic, duration: 24 months, drinking water, Kidney: Increased relative weight) of 7.5 mg/kg-day.

For `CSc1nnc(C(C)(C)C)c(=O)n1N` [Metribuzin], the NOEL (Rattus norvegicus [5]; Hershberger, duration: 10 days, oral, gavage, Sprague-Dawley, inactive + Negative + Negative + neither + negative) was 120 mg/kg-day, the LEL (Canidae; [13]) was 37.5 mg/kg-day and the NOEL (Canidae; [13]) was 2.5 mg/kg-day.

With `C[n+]1ccc(-c2cc[n+](C)cc2)cc1` [Paraquat] the LEL (Canidae; [14]) was 0.93 mg/kg-day and the NOEL (Canidae; [14]) was 0.45 mg/kg-day.

`CCCCN(CC)C(=O)SCCC` [Pebulate] gave an NOEL (Rattus norvegicus [3]; subchronic, diet, Blood: Increased clotting time) of 5 mg/kg-day.

`Brc1cc(-c2ccc(Br)c(Br)c2Br)cc(Br)c1Br` [Polybrominated biphenyls (PBB)] showed an LOAEL (Rattus norvegicus [3]; chronic, duration: 25 weeks, gavage, Liver: Increased weight + Liver: Lesions) of 0.07 mg/kg-day.

`CCCN(CC1CC1)c1c([N+](=O)[O-])cc(C(F)(F)F)cc1[N+](=O)[O-]` [Profluralin] gave an NOEL (Rattus norvegicus [3]; subchronic, diet, None Observed) of 3 mg/kg-day.

For `CSc1nc(NC(C)C)nc(NC(C)C)n1` [Prometryn], the LEL (Canidae; [15]) was 37.5 mg/kg-day and the NOEL (Canidae; [15]) was 3.75 mg/kg-day.

With `CC(C)N(C(=O)CCl)c1ccccc1` [Propachlor] the LEL (Rattus norvegicus [2]; [16]) was 133 mg/kg-day, the NOEL (Rattus norvegicus [2]; [16]) was 13.3 mg/kg-day and the NOEL (Rattus norvegicus [3]; subchronic, duration: 90 days, diet, Whole body: Decreased weight gain) was 13.3 mg/kg-day.

With `[Na+].[O]=[V](=[O])[O-]` [Sodium metavanadate] the LOAEL (Rattus norvegicus [6]) was 2.1 mg/kg-day, the NOAEL (Rattus norvegicus [6]) was 0.21 mg/kg-day and the NOAEL (Rattus norvegicus [3]; subchronic, duration: 3 months, drinking water, Kidney: Impaired function) was 1.52 mg/kg-day.

Compound `CN[C@@H]1[C@H](O[C@H]2[C@H](O[C@H]3[C@H](O)[C@@H](O)[C@H](N=C(N)N)[C@@H](O)[C@@H]3N=C(N)N)O[C@@H](C)[C@]2(O)C=O)O[C@@H](CO)[C@H](O)[C@H]1O` [Streptomycin A] has an LOEL (Rattus norvegicus [1]; [17]) of 10 mg/kg-day and an NOEL (Rattus norvegicus [1]; [17]) of 5 mg/kg-day.

`[Cl-].[Cl-].[Sr+2]` [Strontium chloride] showed an NOAEL (Rattus norvegicus [6]) of 263 mg/kg-day.

`[Sr]` [Strontium] was tested, and the NOAEL (Rattus norvegicus [7]) was 140 mg/kg-day, the LOAEL (Rattus norvegicus [2]; [18]) was 380 mg/kg-day and the NOAEL (Rattus norvegicus [2]; [18]) was 190 mg/kg-day. The NOAEL (Rattus norvegicus [3]; short-term, duration: 20 days, drinking water, Bone: Rachitic changes) was 190 mg/kg-day.

For `Oc1cc(Cl)ccc1Oc1ccc(Cl)cc1Cl` [Triclosan], the LEL (Rattus norvegicus [5]; duration: 3 days, oral) was 4.69 mg/kg-day and 7.5 mg/kg-day, the LEL (Rattus norvegicus [5]; duration: 20 days, oral) was 150 mg/kg-day and the NOEL (Rattus norvegicus [3]; short-term, duration: 4 weeks, Whole body: Decreased weight) was 500 mg/kg-day.

In the case of `C=CC1(C)OC(=O)N(c2cc(Cl)cc(Cl)c2)C1=O` (centres undefined) [Vinclozolin], the NOEL (Rattus norvegicus [4]; Sprague-Dawley, Body Weight Changes: decrease + Blood Chemistry: BUN increase, Cho increase, Glu increase, TSH increase, T4 decrease, , LH increase, , …) is reported as under 3.12 mg/kg-day, the NOEL (Rattus norvegicus [5]; Hershberger, duration: 7 days, injection, subcutaneous, Wistar, Neither + significant delay in PPS and AST / epididymal wt reduced at 30 mg/kg / serum LH decreased at 10 mg/kg / increase in …) is reported as 30 mg/kg-day and the NOEL (Rattus norvegicus [5]; Hershberger, duration: 10 days, oral, gavage, Wistar, active + Antiandrogenic + anti-androgenic + ISR significant delay in PPS at 10 mg/kg / Monossori et al. significant delay in PPS and AST…) is reported as 30 mg/kg-day and 10 mg/kg-day. The LOEL (Rattus norvegicus [5]; Hershberger, duration: 10 days, oral, gavage, wistar, active + Antiandrogenic + anti-androgenic + ISR significant delay in PPS at 10 mg/kg / Monossori et al. significant delay in PPS and AST…) was 10 mg/kg-day and 30 mg/kg-day, the LEL (Canidae; [19]) was 7.5 mg/kg-day and the NOEL (Canidae; [19]) was 2.5 mg/kg-day.

Work on `[PH]=[Zn].[PH]=[Zn].[Zn]` [Zinc phosphide (Zn3P2)] yielded an LOAEL (Rattus norvegicus [2]; subchronic, F, reduced food intake and body weight) of 3.48 mg/kg-day and an LOAEL (Rattus norvegicus [3]; subchronic, duration: 13 weeks, diet, Whole body: Decreased food intake + Whole body: Decreased weight) of 3.48 mg/kg-day.
